Experiments:
[1] = system: LRRK2^WT; test: Western blot LRRK2 degradation in WT MEFs; format: cell-based, mouse; details: WT MEFs and LRRK2^G2019S MEFs
Method: (§1) Western blot degradation assays for the LRRK2 protacs were performed with WT and PD-associated LRRK2 [G2019S] mouse embryonic fibroblasts (MEFs). The second-generation PROTACs were tested in parallel with the first generation PROTACs SD75, SD82, and SD100. The compounds were tested at 33 nM or […] concentrations for 4 hours or 24 hours, running two biological replicates per condition and achieving quantifications representative of both replicates. Analysis by quantitative immunoblotting was performed with readouts of the total LRRK2 (antibody recognizes epitope in C-terminus of protein), Rab10 pThr73 (physiological substrate) and LRRK2 pSer935 (biomarker phosphorylation site).
(§2) Primary MEFs were generated as described in a previous study (Wiggin et al., Mol. Cell Biol. 2002 April; 22(8):2871-81.). Briefly, the uterine horn was collected from adult female mice at day E12.5 and transferred to a 10 cm tissue culture dish containing cold PBS. Two forceps were used to tear the yolk sacs to isolate each embryo. Forceps were cleaned thoroughly with 70% ethanol between each embryo isolation. The embryos were culled, and a tissue piece was collected in a PCR tube for genotyping. The red tissue of the embryo, which grows to become the heart and liver, was removed. The remainder of the embryo was minced with a scalpel blade and incubated with 7.5 ml trypsin-EDTA solution for 10 minutes in a 37° C. tissue culture CO2 incubator. The dish was removed from the incubator and checked under a light microscope for single cells. 7.5 ml complete media was added to the trypsinised cells, and the cell suspension was transferred to a 15 ml Falcon tube, centrifuged at 1200 rpm for 5 minutes at room temperature. The trypsin was aspirated, the cell pellet was resuspended in 5 ml fresh complete media, and the cell suspension was plated in a 60 mm tissue culture dish and incubated in a 37° C., 5% CO2 tissue culture incubator. The MEFs at this stage were considered as passage 0 and were passaged and expanded for experimental use once the genotype was confirmed by allelic sequencing and immunoblotting. MEFs were cultured in Dulbecco's modified Eagle medium (DMEM) containing 10% (v/v) fetal bovine serum (FBS), 2 mM L-glutamine, 100 U/ml penicillin, and 100 μg/ml streptomycin supplemented with 1× non-essential amino acids and 1 mM sodium pyruvate.
(§3) Culturing and passaging of adherent cell lines were carried out using aseptic technique in CL1 or CL2 (for PBMC isolation) biological safety cabinets. All cells were incubated in a 37° C. incubator with 5% CO2. Cell lines were regularly tested for mycoplasma contamination. For western blot assay, the cells were seeded in 6-well plates. After treating with testing compounds at indicated concentrations and time period, the media was removed and the cells were washed with PBS and lysed in 100 μl ice-cold complete lysis buffer containing 50 mM Tris-HCl pH 7.4, 1 mM EGTA, 10 mM 2-glycerophosphate, 50 mM sodium fluoride, 5 mM sodium pyrophosphate, 270 mM sucrose, supplemented with 1 μg/ml microcystin-LR, 1 mM sodium orthovanadate, complete EDTA-free protease inhibitor cocktail (Roche) and 1% (v/v) Triton X-100. The cells were immediately placed on ice and were scraped and collected into 1.5 ml Eppendorf tubes. Cell lysates were incubated on ice for 10 minutes prior to centrifugation at 15,000 g at 4° C. for 15 minutes. The cell pellet was discarded, and supernatant was collected for analysis by quantitative immunoblotting. For long term storage, the supernatant was flash frozen and stored at −80° C. Protein concentrations of cell lysates were determined using the Bradford assay.
(§4) Cell lysates containing a quarter of a volume of 4× NuPAGE LDS sample buffer (NP0007) supplemented with 5% β-mercaptoethanol, were heated at 95° C. for 5 minutes. […]

[2] = system: Rab10 pThr73; test: Rab10 Thr73 dephosphorylation (immunoblot) in WT MEFs; format: cell-based, mouse; details: Mus musculus; for inhibition at 0.033 µM / inhibition at 1 µM: read-out: pRab10 inhibited in WT MEFs; for EC50: dose response, 4 h treatment, read-out: WT MEFs pRab10-dephosphrylation EC50
Summary of the method: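 Wild-type mouse embryonic fibroblasts in 6-well plates were treated with LRRK2 PROTACs, with two biological replicates per condition. Cells were washed in PBS and lysed on ice in buffer containing phosphatase and protease inhibitors plus 1% Triton X-100, then clarified at 15,000 g. Rab10 Thr73 phosphorylation was measured by quantitative immunoblotting of 15 to 20 μg protein on 4-12% Bis-Tris gels.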

[3] = system: Rab10 pThr73; test: Rab10 Thr73 dephosphorylation (immunoblot) in LRRK2^G2019S MEFs; format: cell-based; details: Mus musculus, read-out: pRab10 inhibited in LRRK2^G2019S MEFs
[4] = system: Rab10 pThr73; test: as above; format: cell-based, mouse; details: Mus musculus; for inhibition at 1 µM: read-out: pRab10 inhibited in LRRK2^G2019S MEFs; for EC50: dose response, 4 h treatment, read-out: G2019S MEFs-pRab10-dephosphorylation EC50
[5] = target: T1, LRRK2^WT (Mus musculus, UniProt Q5S006); test: Western blot LRRK2 degradation in WT MEFs; format: cell-based; details: dose response, 4 h treatment; for Dmax: read-out: Dmax on WT MEFs
T1 construct: endogenous in cells; host or cells: primary wild-type mouse embryonic fibroblasts (MEFs)
Method: as §1, §2, §3, §4

[6] = target: T2, LRRK2^G2019S (Mus musculus, UniProt Q5S006, G2019S); test: Western blot LRRK2 degradation in LRRK2^G2019S MEFs; format: cell-based; details: dose response, 4 h treatment; for Dmax: read-out: Dmax on G2019S MEFs
T2 construct: endogenous in cells; host or cells: LRRK2[G2019S] mouse embryonic fibroblasts (MEFs)
Method: as §1, with “The” for “Western blot degradation assays for the LRRK2 protacs were performed with WT and PD-associated LRRK2 [G2019S] mouse embryonic fibroblasts (MEFs). The”
as §2
Culturing and passaging of adherent cell lines were carried out using aseptic technique in CL1 or CL2 (for PBMC isolation) biological safety cabinets. All cells were incubated in a 37° C. incubator with 5% CO2. Cell lines were regularly tested for mycoplasma contamination. For western blot assay, the cells were seeded in 6-well plates. […] The cells were immediately placed on ice and were scraped and collected into 1.5 ml Eppendorf tubes. Cell lysates were incubated on ice for 10 minutes prior to centrifugation at 15,000 g at 4° C. for 15 minutes. The cell pellet was discarded, and supernatant was collected for analysis by quantitative immunoblotting. For long term storage, the supernatant was flash frozen and stored at −80° C. Protein concentrations of cell lysates were determined using the Bradford assay.
Cell lysates containing a quarter of a volume of 4× NuPAGE LDS sample buffer (NP0007) supplemented with 5% β-mercaptoethanol, were heated at 95° C. for 5 minutes. 15 to 20 μg of samples were loaded onto pre-cast 4-12% Bis-Tris midi 20W or 26W gels (Thermofisher Scientific®, Cat #WG1402BOX or WG1403BOX) and resolved at 130 V for 2 hours with NuPAGE MOPS SDS running buffer (Thermofisher Scientific® Cat #NP0001-02). Proteins were electrophoretically transferred onto a 0.45 μm nitrocellulose membrane (GE Healthcare, Amersham Protran® Supported 0.45 mm NC) at 90 V for 90 min on ice in transfer buffer (48 mM Tris base and 39 mM glycine supplemented with 20% methanol). The transferred membrane was blocked with 5% (w/v) skim milk powder dissolved in tris-buffered saline with tween (TBS-T) (50 mM Tris base, 150 mM sodium chloride (NaCl), 0.1% (v/v) Tween-20) at room temperature for 1 hour.

T1 sequence (Q5S006 whole entry): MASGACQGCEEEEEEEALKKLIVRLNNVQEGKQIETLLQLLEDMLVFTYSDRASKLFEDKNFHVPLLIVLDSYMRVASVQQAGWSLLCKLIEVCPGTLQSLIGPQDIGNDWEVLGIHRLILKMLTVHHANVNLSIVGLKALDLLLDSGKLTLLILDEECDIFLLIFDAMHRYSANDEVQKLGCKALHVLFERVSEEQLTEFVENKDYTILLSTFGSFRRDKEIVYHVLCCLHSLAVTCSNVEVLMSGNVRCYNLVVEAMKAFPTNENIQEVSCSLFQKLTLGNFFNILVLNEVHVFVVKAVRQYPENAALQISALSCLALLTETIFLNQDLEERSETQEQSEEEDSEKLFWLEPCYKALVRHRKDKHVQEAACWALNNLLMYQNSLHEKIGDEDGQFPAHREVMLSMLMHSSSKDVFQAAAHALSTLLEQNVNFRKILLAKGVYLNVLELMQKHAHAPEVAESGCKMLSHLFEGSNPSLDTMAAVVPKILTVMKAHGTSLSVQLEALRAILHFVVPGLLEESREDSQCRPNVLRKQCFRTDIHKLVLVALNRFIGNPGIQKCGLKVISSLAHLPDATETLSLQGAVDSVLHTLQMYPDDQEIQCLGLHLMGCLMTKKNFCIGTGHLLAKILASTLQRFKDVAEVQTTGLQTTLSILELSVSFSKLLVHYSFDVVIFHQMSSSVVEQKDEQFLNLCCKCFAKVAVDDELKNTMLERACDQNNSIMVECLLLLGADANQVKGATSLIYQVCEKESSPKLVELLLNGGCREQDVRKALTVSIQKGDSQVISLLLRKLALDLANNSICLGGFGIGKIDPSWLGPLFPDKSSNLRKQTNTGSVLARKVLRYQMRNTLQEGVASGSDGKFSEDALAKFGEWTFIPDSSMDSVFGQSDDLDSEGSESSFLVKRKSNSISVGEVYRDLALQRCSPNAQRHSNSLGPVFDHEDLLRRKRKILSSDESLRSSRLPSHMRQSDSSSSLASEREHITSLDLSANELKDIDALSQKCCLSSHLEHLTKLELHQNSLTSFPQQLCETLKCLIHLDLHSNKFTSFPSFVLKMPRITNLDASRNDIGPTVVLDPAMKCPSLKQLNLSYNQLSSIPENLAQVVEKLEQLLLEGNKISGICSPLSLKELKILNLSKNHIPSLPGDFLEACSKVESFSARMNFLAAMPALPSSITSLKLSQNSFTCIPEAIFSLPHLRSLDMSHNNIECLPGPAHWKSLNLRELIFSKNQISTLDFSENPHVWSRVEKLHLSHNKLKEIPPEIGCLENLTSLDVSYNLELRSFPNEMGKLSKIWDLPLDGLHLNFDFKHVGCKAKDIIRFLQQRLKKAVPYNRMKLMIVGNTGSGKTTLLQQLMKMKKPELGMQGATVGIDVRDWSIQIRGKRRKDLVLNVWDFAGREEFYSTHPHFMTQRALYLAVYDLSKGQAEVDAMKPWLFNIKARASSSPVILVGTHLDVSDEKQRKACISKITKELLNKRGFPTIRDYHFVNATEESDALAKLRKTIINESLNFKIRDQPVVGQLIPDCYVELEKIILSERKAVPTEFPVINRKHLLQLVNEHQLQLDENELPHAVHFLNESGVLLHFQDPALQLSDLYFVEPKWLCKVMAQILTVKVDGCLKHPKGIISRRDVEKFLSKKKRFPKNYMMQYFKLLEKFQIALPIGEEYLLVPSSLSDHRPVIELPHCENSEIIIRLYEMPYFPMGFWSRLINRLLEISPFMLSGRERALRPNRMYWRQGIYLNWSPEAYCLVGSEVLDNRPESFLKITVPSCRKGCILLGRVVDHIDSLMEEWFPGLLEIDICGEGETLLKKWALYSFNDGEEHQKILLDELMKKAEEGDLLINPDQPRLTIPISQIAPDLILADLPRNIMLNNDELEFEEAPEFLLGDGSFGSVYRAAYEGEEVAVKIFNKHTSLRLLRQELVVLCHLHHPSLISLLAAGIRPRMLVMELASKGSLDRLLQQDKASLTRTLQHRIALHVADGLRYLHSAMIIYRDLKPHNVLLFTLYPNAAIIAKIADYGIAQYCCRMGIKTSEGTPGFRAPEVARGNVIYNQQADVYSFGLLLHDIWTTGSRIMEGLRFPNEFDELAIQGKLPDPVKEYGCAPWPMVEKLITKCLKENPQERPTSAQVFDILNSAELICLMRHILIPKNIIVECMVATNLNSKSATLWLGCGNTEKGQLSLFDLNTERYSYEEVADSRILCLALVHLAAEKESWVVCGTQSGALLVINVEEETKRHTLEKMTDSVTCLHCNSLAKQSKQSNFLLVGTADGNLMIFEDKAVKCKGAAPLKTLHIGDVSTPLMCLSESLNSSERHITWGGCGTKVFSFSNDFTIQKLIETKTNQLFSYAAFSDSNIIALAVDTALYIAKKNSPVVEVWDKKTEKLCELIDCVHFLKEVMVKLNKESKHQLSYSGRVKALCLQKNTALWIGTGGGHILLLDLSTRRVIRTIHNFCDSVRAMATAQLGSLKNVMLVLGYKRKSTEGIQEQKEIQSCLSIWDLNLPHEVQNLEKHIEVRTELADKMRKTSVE
T2 sequence (Q5S006 whole entry G2019S): as the sequence (Q5S006 whole entry) above, with G2019S counted along it

Structure (SMILES): CNc1nc(Nc2ccc(C(=O)N3CCN(CCCSC(C)(C)[C@H](NC(=O)C4(F)CC4)C(=O)N4C[C@H](O)C[C@H]4C(=O)NCc4ccc(-c5scnc5C)cc4)CC3)cc2OC)ncc1Cl [SD82, (2S,4R)-1-((R)-3-((3-(4-(4-((5-chloro-4-(methylamino)pyrimidin-2-yl)amino)-3-methoxybenzoyl)piperazin-1-yl)propyl)thio)-2-(1-fluorocyclopropane-1-carboxamido)-3-methylbutanoyl)-4-hydroxy-N-(4-(4-methylthiazol-5-yl)benzyl)pyrrolidine-2-carboxamide]
- LRRK2 degradation (in words) [1]: moderate LRRK2 degradation
- inhibition at 0.033 µM ([2]; 33 nM/4 h treatment): 0 to 25%
- inhibition at 1 µM ([2]; 1 μM/4 h treatment): 18 to 90%
- inhibition at 1 µM ([2]; 1 μM/24 h treatment): 30 to 90%
- inhibition at 0.033 µM ([3]; 33 nM/4 h treatment): 0 to 60%
- inhibition at 0.033 µM ([3]; 33 nM/24 h treatment): 0 to 70%
- inhibition at 1 µM ([4]; 1 μM/4 h treatment): 30 to 95%

Structure (SMILES): CNc1nc(Nc2ccc(C(=O)N3CCN(C[C@H]4CC[C@@H](CSC(C)(C)[C@H](NC(=O)C5(F)CC5)C(=O)N5C[C@H](O)CC5C(=O)N[C@@H](C)c5ccc(-c6scnc6C)cc5)CC4)CC3)cc2OC)ncc1Cl (stereo partly drawn) [XL02060, (2S,4R)-1-((R)-3-((((1s,4S)-4-((4-(4-((5-chloro-4-(methylamino)pyrimidin-2-yl)amino)-3-methoxybenzoyl)piperazin-1-yl)methyl)cyclohexyl)methyl)thio)-2-(1-fluorocyclopropane-1-carboxamido)-3-methylbutanoyl)-4-hydroxy-N—((S)-1-(4-(4-methylthiazol-5-yl)phenyl)ethyl)pyrrolidine-2-carboxamide]
- Dmax [5]: 71%
- inhibition at 0.033 µM ([2]; 33 nM/4 h treatment): 0 to 70%
- inhibition at 0.033 µM ([2]; 33 nM/24 h treatment): 0 to 80%
- inhibition at 1 µM ([2]; 1 μM/4 h treatment): 80 to 100%
- inhibition at 1 µM ([2]; 1 μM/24 h treatment): 80 to 100%
- EC50 [2]: 0.032 µM
- Dmax [6]: 78.5%
- inhibition at 0.033 µM ([3]; 33 nM/4 h treatment): 0 to 90%
- inhibition at 0.033 µM ([3]; 33 nM/24 h treatment): 30 to 90%
- inhibition at 1 µM ([4]; 1 μM/4 h treatment): 10 to 100%
- inhibition at 1 µM ([4]; 1 μM/24 h treatment): 80 to 100%
- EC50 [4]: 0.027 µM

Structure (SMILES): CNc1nc(Nc2ccc(C(=O)N3CCN(C[C@H]4CC[C@H](CSC(C)(C)[C@H](NC(=O)C5(F)CC5)C(=O)N5C[C@H](O)CC5C(=O)N[C@@H](C)c5ccc(-c6scnc6C)cc5)CC4)CC3)cc2OC)ncc1Cl (stereo partly drawn) [XL02049, (2S,4R)-1-((R)-3-((((1R,4R)-4-((4-(4-((5-chloro-4-(methylamino)pyrimidin-2-yl)amino)-3-methoxybenzoyl)piperazin-1-yl)methyl)cyclohexyl)methyl)thio)-2-(1-fluorocyclopropane-1-carboxamido)-3-methylbutanoyl)-4-hydroxy-N—((S)-1-(4-(4-methylthiazol-5-yl)phenyl)ethyl)pyrrolidine-2-carboxamide]
- DC50 [5]: 0.04 µM
- Dmax [5]: 76.5%
- inhibition at 0.033 µM ([2]; 33 nM/4 h treatment): 0 to 70%
- inhibition at 0.033 µM ([2]; 33 nM/24 h treatment): 0 to 80%
- inhibition at 1 µM ([2]; 1 μM/4 h treatment): 80 to 100%
- inhibition at 1 µM ([2]; 1 μM/24 h treatment): 80 to 100%
- EC50 [2]: 0.065 µM
- DC50 [6]: 0.027 µM
- Dmax [6]: 90%
- inhibition at 0.033 µM ([3]; 33 nM/4 h treatment): 0 to 90%
- inhibition at 0.033 µM ([3]; 33 nM/24 h treatment): 30 to 90%
- inhibition at 1 µM ([4]; 1 μM/4 h treatment): 10 to 100%
- inhibition at 1 µM ([4]; 1 μM/24 h treatment): 80 to 100%
- EC50 [4]: 0.031 µM

Structure (SMILES): CNc1nc(Nc2ccc(C(=O)N3CCN(Cc4ccc(CSC(C)(C)[C@H](NC(=O)C5(F)CC5)C(=O)N5C[C@H](O)C[C@H]5C(=O)NCc5ccc(-c6scnc6C)cc5)cc4)CC3)cc2OC)ncc1Cl [SD100, (2S,4R)-1-((R)-3-((4-((4-(4-((5-chloro-4-(methylamino)pyrimidin-2-yl)amino)-3-methoxybenzoyl)piperazin-1-yl)methyl)benzyl)thio)-2-(1-fluorocyclopropane-1-carboxamido)-3-methylbutanoyl)-4-hydroxy-N-(4-(4-methylthiazol-5-yl)benzyl)pyrrolidine-2-carboxamide]
- LRRK2 degradation (in words) [1]: moderate LRRK2 degradation
- inhibition at 0.033 µM ([2]; 33 nM/4 h treatment): 0 to 25%
- inhibition at 1 µM ([2]; 1 μM/4 h treatment): 18 to 90%
- inhibition at 1 µM ([2]; 1 μM/24 h treatment): 30 to 90%
- inhibition at 0.033 µM ([3]; 33 nM/4 h treatment): 0 to 60%
- inhibition at 0.033 µM ([3]; 33 nM/24 h treatment): 0 to 70%
- inhibition at 1 µM ([4]; 1 μM/4 h treatment): 30 to 95%
